Measured values: PubChem BioAssay (NCI)
Values joined by “and” are separate entries in the source; they are usually repeats but may differ in a detail not shown here. Equal values may be shown once.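 Cultured in 96-well plates, cells were exposed to test compound for 48 hours across five concentrations. GI50 marks 50% less growth. At the TGI there is no net growth.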

Experiments:
Assay in all cases: NCI tumour cell line growth inhibition, 48 h
RXF 393 renal = test system: RXF 393 renal
HCT-116 colon = test system: HCT-116 colon
NCI-H460 lung = test system: NCI-H460 lung
A549 NSCLC = test system: A549 NSCLC
RPMI-8226 leukemia = test system: RPMI-8226 leukemia
KM12 colon = test system: KM12 colon
HL-60(TB) leukemia = test system: HL-60(TB) leukemia
SK-MEL-28 melanoma = test system: SK-MEL-28 melanoma
DLD-1 colon = test system: DLD-1 colon
LXFL 529 NSCLC = test system: LXFL 529 NSCLC

| Compound | TGI (RXF 393 renal) | TGI (HCT-116 colon) | TGI (NCI-H460 lung) | TGI (A549 NSCLC) | TGI (RPMI-8226 leukemia) | TGI (KM12 colon) | TGI (HL-60(TB) leukemia) | TGI (SK-MEL-28 melanoma) | GI50 (RXF 393 renal) | GI50 (HCT-116 colon) | GI50 (NCI-H460 lung) | GI50 (A549 NSCLC) | GI50 (RPMI-8226 leukemia) | GI50 (KM12 colon) | GI50 (HL-60(TB) leukemia) | GI50 (SK-MEL-28 melanoma) | TGI (DLD-1 colon) [µM] | TGI (LXFL 529 NSCLC) [µM] |
| --- | --- | --- | --- | --- | --- | --- | --- | --- | --- | --- | --- | --- | --- | --- | --- | --- | --- | --- |
| CCc1c(Cl)nc(Cl)nc1Cl | 0.968 µM | 0.44 µM | 10.4 µM | 13.7 µM | 0.252 µM | 4.16 µM | 0.674 µM | 5.54 µM |  |  |  |  |  |  |  |  |  |  |
| CC[C@H](C)n1cc(C)c2c(C(=O)NCc3c(C)cc(C)[nH]c3=O)cc(-c3ccc(N4CCNCC4)nc3)cc21 | 23.7 µM and 23.2 µM | 21.6 µM and 22.1 µM | 24.7 µM and 26 µM | 32.4 µM and 32.1 µM | 28 µM and 28.9 µM | 24.2 µM and 23.6 µM | 41.8 µM and 31.9 µM | 27.8 µM and 19.9 µM | 9 µM and 7.71 µM | 10100 nM and 9600 nM | 12300 nM and 12500 nM | 16.8 µM and 16.3 µM | 11.4 µM and 11.7 µM | 11.4 µM and 10.7 µM | 24.6 µM and 14.6 µM | 14.1 µM and 6.51 µM |  |  |
| CCOC(=O)C1=C(C)NC(=O)NC1c1coc2cc(C)cc(C)c2c1=O (stereo not given) | > 100 µM | > 100 µM | > 100 µM | > 100 µM | > 100 µM | > 100 µM | > 100 µM | > 100 µM |  |  |  |  |  |  |  |  |  |  |
| COc1cc([C@@H]2c3cc4c(cc3[C@@H](O[C@@H]3O[C@@H]5CO[C@@H](c6cccs6)O[C@H]5[C@H](O)[C@H]3O)[C@H]3COC(=O)[C@H]23)OCO4)cc(OC)c1O | 3.41 µM | 4.81 µM | 2.09 µM | 2.56 µM | 6.48 µM | 4.34 µM | 0.967 µM | 2.9 µM | 0.409 µM | 344 nM | 23 nM | 0.0969 µM |  | 0.634 µM | 0.119 µM | 0.44 µM |  |  |
| COC(=O)c1ccc([N+](=O)[O-])c(O)c1 | > 100 µM | > 100 µM | > 100 µM | > 100 µM | > 100 µM | > 100 µM | > 100 µM | > 100 µM |  |  |  |  |  |  |  |  |  |  |
| O=C(NNC(=O)c1ccncc1)c1ccncc1 | > 100 µM | > 100 µM | > 100 µM | > 100 µM | > 100 µM | > 100 µM | > 100 µM | > 100 µM |  |  |  |  |  |  |  |  |  |  |
| CC(C)c1cccc(C(C)C)c1NC(=O)C(=O)C(C(=O)c1ccc2ccccc2c1)C1OC(=O)c2ccccc21 (stereo not given) | > 100 µM | > 100 µM | > 100 µM | > 100 µM | > 100 µM | > 100 µM |  | > 100 µM |  |  |  |  |  |  |  |  | > 100 | > 100 |
| CC1=C([Se]CC(OC(=O)[C@@H](CO)NC(=O)OC(C)(C)C)C(=O)NC(C)(C)C)C(=O)c2ccccc2C1=O (stereo not given in full) | 3.28 µM | 2.79 µM | 1.8 µM | 9.44 µM | 8.91 µM | 2.89 µM | 3.81 µM | 3.55 µM | 1.86 µM | 1460 nM | 456 nM | 1.81 µM | 2.74 µM | 1.5 µM | 0.87 µM | 2.06 µM |  |  |
| O=S1(=O)CS(=O)(=O)OCCCO1 | > 100 µM | > 100 µM | > 100 µM | > 100 µM | > 100 µM | > 100 µM | > 100 µM | > 100 µM |  |  |  |  |  |  |  |  |  |  |
| N#Cc1cccc(NC(=O)c2oc3ccccc3c2-c2cnn(-c3ccccc3)c2)c1 | > 500 µM | > 500 µM | > 500 µM | > 500 µM | > 500 µM | > 500 µM | > 500 µM | > 500 µM | 185 µM | > 500000 nM | > 500000 nM | > 500 µM | > 500 µM | > 500 µM | > 500 µM | > 500 µM |  |  |
| C=C1C(=O)O[C@@H]2C[C@@H]1CC[C@@]1(C)O[C@@H]1CC[C@@]1(C)O[C@@H]1CC[C@@]2(C)O | > 100 µM | 32 µM | > 100 µM | > 100 µM | 79.7 µM | > 100 µM | 32.8 µM | 34.8 µM | 42.8 µM | 16400 nM | 60300 nM | 73.8 µM | 14.4 µM | 26.2 µM | 10.3 µM | 17.4 µM |  |  |
| Nc1ccccc1NC(=O)c1ccc(CN2CCC/C(=C\c3cccc(Cl)c3)C2=O)cc1 | 5.23 µM | > 100 µM | > 100 µM | 75.7 µM | 4.58 µM | 13.4 µM | 4.89 µM | 58.9 µM | 0.277 µM | 44.8 nM | 96.2 nM | 1.45 µM | 0.921 µM | 0.378 µM | 0.449 µM | 1.16 µM |  |  |
| CCOc1ccc(N=Nc2ccc3oc(=O)c(C(=O)Nc4ccc(OC)cc4)cc3c2)cc1 |  | 26.2 µM |  | > 100 µM | > 100 µM | > 100 µM | 20.4 µM | 68 µM |  |  |  |  |  |  |  |  | 61.4 | > 100 |
| C/C(=C\CCc1ccoc1)CC/C=C(\C)CCCN1CCC(CO)CC1 | 4.26 µM | 10.4 µM | 4.37 µM | 13.8 µM | 4.48 µM | 5.41 µM | 3.95 µM | 4.03 µM | 1.54 µM | 2960 nM | 2080 nM | 3.26 µM | 2.03 µM | 2.45 µM | 1.96 µM | 1.89 µM |  |  |
| N#CN1CCC[C@H]1C(=O)N1CCc2c(-c3[nH]nc4ncccc34)cccc21 | 0.145 µM | 8.14 µM | 11.1 µM | > 25.1 µM | 7.47 µM | 10.1 µM | < 0.01 µM | 13.9 µM | < 0.01 µM | < 10 nM | 105 nM | 0.106 µM | < 0.01 µM | < 0.01 µM | < 0.01 µM | < 0.01 µM |  |  |
| C#COc1cccc(Nc2ncnc3ncc(NC(=O)CCl)cc23)c1 | > 62.5 µM | > 62.5 µM | > 62.5 µM | > 62.5 µM | > 62.5 µM | > 62.5 µM | > 45 µM | > 62.5 µM | > 62.5 µM | 239 nM |  | > 13.8 µM | > 19.8 µM | > 28.4 µM | > 21.2 µM | > 59.6 µM |  |  |
| N#Cc1c(NC(=O)CN2CCOCC2)sc2c1CCCC2 | > 25 µM | > 25 µM | > 25 µM | > 25 µM | > 25 µM | > 25 µM | > 25 µM | > 25 µM | > 25 µM | > 25000 nM | > 25000 nM | > 25 µM | > 25 µM | > 25 µM | > 25 µM | > 25 µM |  |  |
